In patent US20090209620A1, “Direct Reversal Of The Suppressive Function Of CD4+Regulatory T Cells Via Toll-Like Receptor 8 Signaling” (priority 2005, published 2009):
“Also recorded” adds a separate entry of the source. In the oligonucleotide strings, read from the 5' end, every base follows the letter of its sugar. An asterisk marks phosphorothioate; unmarked linkages are phosphodiester. Other units and linkages are bracketed, terminal groups are in braces. A string of capitals states the bases alone. d = 2'-deoxy (DNA)

How the values were obtained:
[1] = system: antigen-specific Treg102 and Treg164 cells; experiment: TLR ligand assays: reversal of Treg suppression of naive CD4+ T cell proliferation; type: cell-based, human
Experimental: Näive CD4 T+cells were purified from PBMCs by using microbeads (Miltenvi Biotec). Näive CD4^+ T cells ([…]) were cultured with regulatory T cells at a ratio of 10:1 in OKT3 (2 ug/ml)-coated, U bottomed 96-well plates containing the following ligands: LPS (100 ng/ml), imiquimod (10 μg/ml), loxoribine (500 μM), poly(I:C) (25 μg/ml), ssRNA40/LyoVec (3 μg/ml), ssRNA33/LyoVec (3 μg/ml), pam3CSK4 (200 ng/ml) and flagellin (10 μg/ml) were purchased from Invivogene (San Diego, Calif.), while CpG-A (3 μg/ml), CpG-B (3 μg/ml) and Poly-G oligonucleotides (3 μg/ml) were synthesized in Integrated DNA Technologies, Inc (Coralville, Iowa). Functional assays were identical to those described above.
If the TLR8-MyD88-IRAK4 signaling pathway is necessary and sufficient for direct reversal of the suppressive function of Treg cells, it should be possible to produce that effect with natural ligands for human TLR8. For FIG. 4A-B, naive CD4^+ T cells were mixed with Treg102, Treg164 or naturally occurring CD4^+ CD25^+ Treg cells in anti-CD3 antibody-coated wells in the presence of different TLR ligands. Data are presented as means±SD and represent results from three independent experiments.

[2] = system: naturally occurring CD4+ CD25+ Treg cells; experiment: Reversal of suppressive function of naturally occurring CD4+CD25+ Treg cells (proliferation assay); type: cell-based; conditions: sorted from fresh human PBMCs; anti-CD3-coated wells
Text: Establishing Treg cell lines and purifying natural CD4^+ CD25^+ Treg cells CD4^+ Treg clones were established from CD4^+ tumor-infiltrating lymphocytes (TIL102 and TIL164) and maintained in RPMI 1640 medium containing 10% human AB serum and recombinant IL-2 (300 IU/ml) using methods well known in the art (See, e.g., H. Y. Wang et al., Immunity 20, 107-118 (2004)). Treg clones derived from TIL102 or TIL164 cells were pooled and designated Treg102 or Treg164. Naturally occurring CD4^+ CD25^+ Treg cells were obtained by sorting CD4^+ T cell populations from fresh PBMCs after staining with anti-CD4 and anti-CD25 antibodies. To obtain optimal expansion, the OKT3 expansion method was performed using methods well known in the art (See, e.g., H. Y. Wang et al., Immunity 20, 107-118 (2004)). T cell clones were maintained at a low IL-2 concentration (300 IU/ml). […]
The expression of CD4, CD25 and GITR on Treg cells was determined by FACS analysis after staining with specific antibodies (purchased from R&D Systems and BD Biosciences). […] After 3 days in culture, the cells were analyzed by FACS gating on the CFSE-labeled cells. […]
FIG. 2E: Both CD4^+ CD25^+ and CD25^− T cells were sorted after staining of freshly isolated human CD4^+ T cells with anti-CD4 and anti-CD25 antibodies. The purity of the sorted T cells was determined by FACS. […]

[3] = system: CD4+ Treg cells (Treg102, Treg164); experiment: Proliferation assay with dendritic cells: Treg suppression of naive CD4+ T cell proliferation ([3H]thymidine); type: cell-based, human; conditions: with DCs; LPS 100 ng/ml, IL-6 100 ng/ml, IFN-α 100 ng/ml
Text: (§1) Establishing Treg cell lines and purifying natural CD4^+ CD25^+ Treg cells CD4^+ Treg clones were established from CD4^+ tumor-infiltrating lymphocytes (TIL102 and TIL164) and maintained in RPMI 1640 medium containing 10% human AB serum and recombinant IL-2 (300 IU/ml) using methods well known in the art (See, e.g., H. Y. Wang et al., Immunity 20, 107-118 (2004)). Treg clones derived from TIL102 or TIL164 cells were pooled and designated Treg102 or Treg164. Naturally occurring CD4^+ CD25^+ Treg cells were obtained by sorting CD4^+ T cell populations from fresh PBMCs after staining with anti-CD4 and anti-CD25 antibodies. To obtain optimal expansion, the OKT3 expansion method was performed using methods well known in the art (See, e.g., H. Y. Wang et al., Immunity 20, 107-118 (2004)). T cell clones were maintained at a low IL-2 concentration (300 IU/ml). Melanoma cell lines and EBV-transformed B-cell lines used in this study were cultured in RPMI 1640 medium containing 10% FCS. Human embryonic kidney (HEK) 293 and Epstein-Barr virus (EBV)-transformed B cell lines were maintained in RPMI 1640 with 10% fetal calf serum (FCS).
A. Proliferation assay with Dendritic Cells (DCs): Näive CD4^+ T cells were purified from PBMCs using microbeads (Miltenvi Biotec). DCs were generated from PBMC-derived monocytes in the presence of IL-4 (500 ng/ml) and GM-CSF (800 ng/ml) for 7 days. 1×105 näive CD4^+ T cells were cultured with regulatory T cells at different ratios (1: 0.2, 1:0.1 and 1:0.05) in 200 ul of medium containing 2×104 of DCs and anti-CD3 antibody (100 ng/ml) plus one of the following TLR ligands or cytokines: CpG-A (3 ug/ml), CpG-B (3 ug/ml), LPS (100 ng/ml), TNF.-α (20 ng/ml), IFN-α (100 ng/ml), or IL-6 (100 ng/ml). After 56 h of culture, [3H]thymidine was added at a final concentration of 1 uCi/well, followed by an additional 16 h. of culture. The incorporation of [^3H]thymidine was measured with a liquid scintillation counter, using methods well known in the art (See, e.g., M. K. Levings et al., J. Exp. Med. 196, 1335-46 (2002)). All experiments were performed in triplicate.
Two CD4^+ Treg cell lines, designated Treg102 and Treg164, were generated with a panel of Treg cell clones derived from TIL102 and TIL164 cells. […] A functional proliferation assay was employed to examine whether CpG (a TLR9 ligand), LPS (a TLR4 ligand) or the cytokines IL-6 or IFN-α could regulate the suppressive activity of antigen specific human CD4^+ Treg cells in the presence of DCs. […]

[4] = system: CD4+ Treg cells (Treg102, Treg164); experiment: Proliferation assay without DCs: Treg suppression of naive CD4+ T cell proliferation, anti-CD3-coated plates; type: cell-based, human; conditions: absence of DCs; anti-CD3-coated plates; oligonucleotides 3 ug/ml in medium
Text: as §1
B. Proliferation assay without DCs: 1×10^5 näive CD4 T cells were cultured with regulatory T cells at different ratios (1: 0.2, 1:0.1 and 1:0.05) in anti-CD3 mAb-coated (2 ug/ml) 96-well plates in the presence or absence of the following TLR ligands or cytokines: CpG-A (3 ug/ml), CpG-B (3 ug/ml), LPS (100 ng/ml), TNF.-α (20 ng/ml), IFN-α (100 ng/ml), or IL-6 (100 ng/ml). After 56 h of culture, [3H]thymidine was added at a final concentration of 1 uCi/well, followed by an additional 16 h of culture. The incorporation of [^3H]thymidine was measured with a liquid scintillation counter.
Näive CD4^+ T cell proliferation experiments were performed similar to those in FIG. 1A, but in the absence of DCs. […] The reversal effect of CpG-A (SEQ ID NO: 1) contrasts with the failure of CpG-B (SEQ ID NO: 2), LPS, TNF-α, IL-6 or IFN-α to block the suppressive activity of CD4^+ Treg cells against naive CD4^+ T cells (FIG. 1B).
To further define the CpG-A (SEQ ID NO: 1) sequences responsible for the observed reversal effect, CpG-NG (SEQ ID NO: 5) and Poly-G10 (SEQ ID NO: 6), were tested for their ability to reverse the suppressive function of Treg cells. Naive CD4^+ T cells were mixed with CD4^+ Treg cells in anti-CD3 antibody-coated 96-wells with 200 μl of medium containing CpG-NG (SEQ ID NO: 5), CpG-A (SEQ ID NO: 1) or Poly-G10 (SEQ ID NO: 6). The proliferation assay was conducted as described in FIG. 1. […] For the experiments shown in FIG. 2B, naive CD4^+ T cells were mixed with CD4^+ Treg cells in anti-CD3 antibody-coated 96-wells with 200 μl of medium containing Poly-A10 (SEQ ID NO: 7), Poly-T10 (SEQ ID NO: 9) or Poly-C10 (SEQ ID NO: 8), while the Poly-G10 (SEQ ID NO: 6) oligonucleotides served as a positive control.
A series of oligonucleotides with decreasing numbers of guanosine nucleosides was constructed to determine the minimal number required for the reversal effect. For the experiments in FIG. 2C, CD4^+ T cells were mixed with CD4^+ Treg cells in anti-CD3 antibody-coated 96-wells containing medium with protected phosphorothioate linked guanosine nucleoside containing oligonucleotides of various lengths, while the unprotected five guanosines (SEQ ID NO: 10) served as a control.

586mel human tumor cells = experiment: Human 586mel tumor model in Rag1-/- mice with adoptive transfer of TIL586 and Treg102 cells; type: in vivo; conditions: 586mel s.c. day 0; CD8+ TIL586 plus Treg102 cells with oligonucleotide on day 3; n=6 mice per group
Experimental: Human 586mel tumor cells (5×106) in 100 μl of buffered saline were subcutaneously injected into Rag1^−/− mice (lacking T and B cells) or Rag 2 ^−/− γC ^−/− mice (lacking T, B and NK cells) on day 0. Tumor-specific CD8^+ TIL586 cells (2.5×107), which recognize and kill 586mel cells, were injected intravenously on day 3 with or without Treg102 cells (3×106) pretreated with Poly-G10 or Poly-T10. Tumor size was measured with calipers every 2-3 days. Tumor volume was calculated on the basis of two-dimensioned measurements. Tumor growth curves were compared with the Wilcoxon rank-sum test.
The data in FIG. 4A-B confirms that TLR8 serves as a receptor for synthetic guanosine containing oligonucleotides and natural ssRNA40 and ssRNA33 ligands derived from HIV-1 virus, and that its activation in endosomes by synthetic DNA or ssRNA ligands triggers a signaling pathway that can reverse the suppressive function of Treg cells. To study the guanosine containing oligonucleotide induced reversal of Treg cell function in vivo, a human tumor model was established by subcutaneously injecting 586mel human tumor cells into Rag1^−/− (T and B cell deficient) mice. […] Tumor volumes were measured and presented as mean±SD (n=6 mice per group). P value was determined between groups as indicated. […]

| Molecule | reversal of suppressive function of naturally occurring CD4+CD25+ Treg cells [2] | restoration of proliferative ability of naive CD4+ T cells in the presence of CD4+ Treg cells [3] | reversal of Treg cell-mediated suppression of naive CD4+ T cell proliferation [4] | further results |
| --- | --- | --- | --- | --- |
| CC(C)Cn1cnc2c(N)nc3ccccc3c21 [Imiquimod] | little or no effect |  |  | reversal of suppressive function of antigen-specific Treg cells ([1]; Treg102 and Treg164, naive T:Treg 10:1, OKT3-coated plates): partial reversal |
| IFN-α |  | did not restore the proliferative ability | failure |  |
| IL-6: cytokine |  | did not restore the proliferative ability | failure |  |
| Poly-G5: Poly-G oligonucleotide with phosphorothioate linkages (DNA dG*dG*dG*dG*dG) | Reversal of suppressive function; also recorded: entirely reversed; also recorded: could be reversed |  |  |  |
| Poly-T10: control oligonucleotide with protected phosphorothioate backbone (DNA TTTTTTTTTT) |  |  | failed to reverse the suppressive function of Treg cells; also recorded: lacked the ability to reverse the suppressive activity of Treg cells | tumor growth / antitumor immunity (586mel human tumor cells): grew faster than in mice receiving 586mel cells alone |
| lipopolysaccharide [LPS] |  | did not restore the proliferative ability | failure | restoration of proliferation of naive CD4+ T cells in the presence of Treg cells ([1]; Treg102, Treg164 or naturally occurring CD4+CD25+ Treg cells (FIG. 4A-B)): failed to restore the proliferation of naive CD4^+ T cells |
